Reference: US20140371189A1, “TESTOSTERONE REPLACEMENT THERAPY IN ANIMALS, INCLUDING DOGS” (David Bieber Consulting, LLC, priority 2013, published 2014)

Experiments:
[1] = injectable ester; cited from earlier work
[2] = cited from earlier work; for effectiveness when taken orally: oral
[3] = free, non-esterified form; cited from earlier work
[4] = tested on: neutered male Cocker Spaniel with declines in mobility and arthritis; experiment: Example 2: clinical outcome and side effects in a neutered male Cocker Spaniel
Protocol: (§1) A 28.7 pound, 12 year and two month-old neutered male Cocker Spaniel named Blackjack was evaluated because of his owner's concerns about declines in his level of mobility and arthritis.
(§2) During month one of the protocol, Blackjack was screened for treatment by conducting a thorough physical exam, complete blood chemistry, urinalysis, and testosterone level. […] An initial injection of testosterone IM was administered and Blackjack began treatment with Previcoxx 57 mg once per day. A follow-up was conducted by phone one day after the initial injection and again at two weeks post injection.
(§3) Previcoxx was discontinued and Metacam was prescribed. During a follow-up appointment Blackjack received an injection of testosterone IM. […] It was decided to increase the dosage of testosterone.
Radiographs were taken to rule out degenerative joint disease and neoplasia. During month three, the patient received another injection of testosterone IM. […] Blackjack was then operated on to treat the fracture.
Monthly injections of testosterone continued. The dosage of testosterone had to be lowered after surgery due to concerns about Blackjack being too active after surgery to repair his fracture and was raised again after healing was complete. During month nine, Blackjack underwent further surgery to remove multiple skin growths.
During month ten Blackjack received an injection of testosterone, returning him to the dosage he received prior to his injury and subsequent surgery. […] During month twelve Blackjack continued receiving testosterone injections, and during month thirteen additional skin growths had to be removed.

[5] = tested on: dogs compromised by osteoarthritis, intervertebral disc disease, hip dysplasia, weakness due to old age, muscle atrophy and joint pain; experiment: Example 1: testosterone replacement therapy study, medical record review; format: in vivo, dog
From the text: In order to treat dogs, horses, or other animals in need of testosterone replacement therapy, the following protocol should be followed: • (1) Obtain information about potential patient via a clinical intake process and questionnaire such as the example shown in the drawing figure; • (2) Conduct a general physical examination on potential patient; • (3) Conduct laboratory tests on potential patient's blood and/or urine, including measuring initial testosterone levels in the patient's blood. This can be total testosterone or free testosterone. […]
A study was undertaken to determine if dogs compromised by osteoarthritis (also known as degenerative joint disease), intervertebral disc disease, hip dysplasia, weakness due to old age, muscle atrophy and joint pain experienced improvements following testosterone replacement therapy. […] Data from the medical records were analyzed to determine the efficacy of the treatment protocol. Data recorded from medical records included breed, date of birth, age, sex, neutered vs. intact, baseline testosterone level, date of testosterone injections and improvement status (improved vs. no noticeable improvement). […]
Following informed assent by each dog owner, each dog underwent an initial clinical exam including a detailed health history, list of medications, a CBC, urinalysis and baseline testosterone level were conducted. […] Changes in mobility, pain level/medications needed, energy and muscle tone were assessed and testosterone dosage was adjusted if needed prior to each injection. Follow-up testosterone levels were measured one week after the initial injection and on an as needed basis throughout the course of treatment. […]

[6] = Example 2: blood testosterone level during testosterone therapy; conditions: for testosterone level: dog Blackjack
Protocol: as §1, §2, §3
At this time a regular annual exam was conducted.

For C[C@]12CC[C@H]3[C@@H](CCC4=CC(=O)CC[C@@]43C)[C@@H]1CC[C@@H]2OC(=O)CCC1CCCC1 [Testosterone cypionate], the release time [1] is listed as 8 to 10 days.
For CCCCCCC(=O)O[C@H]1CC[C@H]2[C@@H]3CCC4=CC(=O)CC[C@]4(C)[C@H]3CC[C@]12C [Testosterone enanthate], the release time [1] is listed as 8 to 10 days.
In the case of C[C@]12CC[C@H]3[C@@H](CCC4=CC(=O)CC[C@@]43C)[C@@H]1CC[C@@H]2OC(=O)CCc1ccccc1 [Testosterone phenylpropionate], the release time [1] is given as 1-3 weeks.
For CCCCCCCCCCC(=O)O[C@H]1CC[C@H]2[C@@H]3CCC4=CC(=O)CC[C@]4(C)[C@H]3CC[C@]12C [testosterone undecanoate], the “effectiveness when taken orally” value [2] is listed as “effective when taken orally” and the “time to elimination from the body” value ([2]; orally administered) is listed as 3 to 4 h.
For C[C@]12CC[C@H]3[C@@H](CCC4=CC(=O)CC[C@@]43C)[C@@H]1CC[C@@H]2O [testosterone], the “effectiveness when taken orally” value [2] is listed as “not effective”, the “solubility in oil and water” value [3] is listed as “poor solubility in both oil and water” and the “healing of distal humeral lateral condylar fracture while being treated” value ([4]; after surgery) is listed as “completely healed from this fracture within two months of surgery”. The side effects ([4]; follow-up one day and two weeks after initial IM injection) was “No side effects were reported”, the “behaviour leading to dosage decrease” value ([4]; month eleven) was “mounting other dogs” and the owner-reported improvements ([4]; owner interview in week 57 of the protocol) was “improvements in Blackjack's ability to jump on furniture, ascend and descend stairs, and rise from sitting and lying positions”. The “adverse side effects from the treatment” value ([4]; whole course of treatment) was “no adverse side effects”, the “subjects that made improvements after the study protocol” value ([5]; 25 dogs analysed, n=23 improved, monthly testosterone injections, improvement = more mobility and/or energy, less pain medication, less muscle atrophy) was “ninety-two” and the side effects ([5]; evaluated at monthly follow-ups, all dogs) was “no side effects were observed”. The “dogs whose injection dosages had to be lowered due to becoming too active” value ([5]; two of 25 dogs) was 8%, the testosterone level ([6]; second month, one week after second IM injection, baseline <40 pg/ml) was 604.80 pg/mL and the testosterone level ([6]; third measurement (month three/four) after increased IM dosage) was 1224.50 pg/mL. For the same molecule, the concentration at 4 month ([6]; male, Cocker Spaniel, dog, blood, intramuscular) was 1.22 ng/mL.
For Testosterone propionate, the release time [1] is listed as 3 to 4 days.
